Source: ChEMBL document CHEMBL3407359, “(3Z)-3-(2-[4-(aryl)-1,3-thiazol-2-yl]hydrazin-1-ylidene)-2,3-dihydro-1H-indol-2-one derivatives as dual inhibitors of HIV-1 reverse transcriptase” (Eur J Med Chem, 2015)

Assays:
[1] = target: Human immunodeficiency virus type 1 reverse transcriptase (Human immunodeficiency virus 1) (UniProt Q72547); test: Specificity index, ratio of IC50 for HIV1 reverse transcriptase-associated DNA polymerase-independent RNase H activity to IC50 for HIV1 reverse transcriptase-associated RNA-dependent DNA polymerase activity
[2] = target: T1, Human immunodeficiency virus type 1 reverse transcriptase (Human immunodeficiency virus 1, UniProt Q72547); test: Inhibition of HIV1 reverse transcriptase-associated DNA polymerase-independent RNase H activity after 1 hr
[3] = target: T1, Human immunodeficiency virus type 1 reverse transcriptase; test: Inhibition of HIV1 reverse transcriptase-associated RNA-dependent DNA polymerase activity after 30 mins
[4] = Metal chelating activity of the compound assessed as magnesium ion complex formation by UV-vis spectrometric analysis; type: physicochemical
[5] = target: T2, Human immunodeficiency virus type 1 reverse transcriptase (Human immunodeficiency virus 1, UniProt Q72547, Y181C)
Description: Inhibition of HIV1 reverse transcriptase Tyr181Cys mutant-associated RNA-dependent DNA polymerase activity after 30 mins

[6] = target: T2, Human immunodeficiency virus type 1 reverse transcriptase; remark: listed apart in the source
Description: Inhibition of HIV1 reverse transcriptase Tyr181Cys mutant-associated DNA polymerase-independent RNase H activity after 1 hr

[7] = target: T3, Human immunodeficiency virus type 1 reverse transcriptase (Human immunodeficiency virus 1, UniProt Q72547, K103N)
Description: Inhibition of HIV1 reverse transcriptase Lys103Asn mutant-associated DNA polymerase-independent RNase H activity after 1 hr

[8] = target: T3, Human immunodeficiency virus type 1 reverse transcriptase; remark: listed apart in the source
Description: Inhibition of HIV1 reverse transcriptase Lys103Asn mutant-associated RNA-dependent DNA polymerase activity after 30 mins

Ratio IC50 [1]	IC50 [2] [µM]	IC50 [3] [µM]	SMILES	Activity [4]	IC50 [5] [µM]	IC50 [6] [µM]	IC50 [7] [µM]	IC50 [8] [µM]
1.3	100	71.6	O=C1Nc2ccccc2/C1=N/Nc1nc(-c2ccccc2)cs1					
0.2	3.9	19.5	O=C1Nc2ccccc2/C1=N/Nc1nc(-c2ccc(Cl)cc2Cl)cs1					
0.53	10.6	20	O=C1Nc2ccccc2/C1=N/Nc1nc(-c2ccc(Cl)cc2)cs1					
0.14	2.6	18.5	O=C1Nc2ccccc2/C1=N/Nc1nc(-c2ccc(F)cc2F)cs1					
3.5	3.2	0.9	O=C1Nc2ccccc2/C1=N/Nc1nc(-c2ccc(O)c(O)c2)cs1	Not Active				
0.21	2.8	13	O=C1Nc2ccccc2/C1=N/Nc1nc(-c2cccc([N+](=O)[O-])c2)cs1					
0.18	14.9	81	O=C1Nc2ccccc2/C1=N/Nc1nc(-c2ccc(Br)cc2)cs1					
0.26	6.4	23.9	O=C1Nc2ccccc2/C1=N/Nc1nc(-c2ccc(F)cc2)cs1					
0.2	9	45	Cc1ccc(-c2csc(N/N=C3\C(=O)Nc4ccccc43)n2)cc1					
0.18	4.7	26	COc1ccc(-c2csc(N/N=C3\C(=O)Nc4ccccc43)n2)cc1					
0.08	2.9	34	O=C1Nc2ccccc2/C1=N/Nc1nc(-c2ccc([N+](=O)[O-])cc2)cs1					

SMILES	Ratio IC50 [1]	IC50 [2] [µM]	IC50 [3] [µM]	Activity [4]	IC50 [5] [µM]	IC50 [6] [µM]	IC50 [7] [µM]	IC50 [8] [µM]
O=C1Nc2ccccc2/C1=N/Nc1nc(-c2ccc(-c3ccccc3)cc2)cs1	0.11	2.5	22	Not Active	15.4	2.7	3.42	18.8
